The IC50 is the concentration that inhibits the measured activity by half.

The values below come from patent US20100028259A1, “USE OF ORGANIC CATION TRANSPORTERS FOR CANCER DIAGNOSIS AND THERAPY” (The Regents of the University of California, priority 2006, published 2010).

Where two headings read alike, the source gives them in different places.

The experiment deals with HT29. Briefly: MTT drug sensitivity, colon cancer cell line HT29. The format is cell-based, human. As for the experimental part:
Cytotoxicity of the platinum-based compounds was measured by MTT (thiazolyl blue tetrazolium bromide) assay. Cells were seeded in 100 μl of the culture medium without any antibiotics in 96-well plates at a predetermined cell density. For HEK 293 cells, poly-D-lysine coated plates were used. […] For the OCT inhibitor studies, the inhibitors (i.e., disopyramide or cimetidine) were added to the medium at a specified concentration immediately before the addition of the platinum-based compounds. After incubation for a specified time period, the drug-containing medium was replaced with fresh, drug-free medium and the incubation was continued for a total of 72 hours (start from the addition of platinum-based compounds). Then, the MTT assay was performed similarly as described in Alley et al., Cancer Res., 48:589-601 (1988). […] The maximal cell growth was the cell growth in the medium without any platinum-based compounds; C is the concentration of the platinum-based compound, and γ is the slope factor.
The cell seeding density was 6,000-, 8,000-, 6,000-, 15,000-12,000- and 4,000 cells/well for HCT116, HT29, RKO, SW620, LS180, and DLD cells, respectively. When cimetidine (1.5 mM) was used, it was added to the wells immediately before the addition of the platinum-based drugs. The resistance factor (RF) was defined as the ratio of the mean IC50 value in the presence to that in the absence of cimetidine. Data are expressed as mean±SD from six measurements, and each measurement was performed in quadruplicate.

For the compound `O=C1[O][Pt]2([NH][C@@H]3CCCC[C@H]3[NH]2)[O]C1=O` [oxaliplatin], the half-inhibitory concentration (IC50) by setting is: (HT29, absence of cimetidine, read-out: IC50 Control) 4.56 ± 1.4 µM; (HT29, cimetidine 1.5 mM, read-out: IC50 Cimetidine-treated) 52.1 ± 18.5 µM.
